SMILES strings stand for the structures.

The assay deals with T1, Endothelial lipase (EL) (Homo sapiens, UniProt Q9Y5X9).
T1 construct: HT-1080 cells that were transformed using RAGE technology (Athersys) to overexpress endogenous EL; endogenous in cells; conditioned medium used
T1 sequence (Q9Y5X9 21-500): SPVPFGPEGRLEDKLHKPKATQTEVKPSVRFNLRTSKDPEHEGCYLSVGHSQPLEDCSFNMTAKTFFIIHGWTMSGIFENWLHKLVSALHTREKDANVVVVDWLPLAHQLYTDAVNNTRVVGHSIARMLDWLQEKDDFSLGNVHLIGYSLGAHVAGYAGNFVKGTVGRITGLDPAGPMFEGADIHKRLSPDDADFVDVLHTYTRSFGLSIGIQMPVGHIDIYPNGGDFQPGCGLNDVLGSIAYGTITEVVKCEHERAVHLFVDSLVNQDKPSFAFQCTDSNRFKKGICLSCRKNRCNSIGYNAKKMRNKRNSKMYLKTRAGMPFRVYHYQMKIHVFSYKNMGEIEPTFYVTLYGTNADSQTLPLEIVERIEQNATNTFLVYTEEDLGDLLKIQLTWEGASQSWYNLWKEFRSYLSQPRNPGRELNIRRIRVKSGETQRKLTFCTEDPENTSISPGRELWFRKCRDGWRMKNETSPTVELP
The assay is described as follows: Endothelial lipase (EL) enzymatic assay, fluorescent substrate A10070 in DMPG vesicles. The class given is biochemical. The note with it: EL from conditioned media of HT-1080 cells; compound preincubated 30 min at 37° C; read-out: EL IC50. The method, then: Endothelial lipase (EL) and hepatic lipase (HL) activities were measured using a fluorescent substrate, A10070, (Invitrogen, CA) doped into an artificial vesicle containing DMPG (Avanti Polar Lipids) as the excipient. Vesicles were prepared by combining 571 μL of 29 mM DMPG in a 1:1 mixture of MeOH and CHCl3 with 2000 μL of 1 mM A10070 in a 1:1 mixture of MeOH and CHCl3. The mixture was dried under nitrogen in multiple vials then resuspended in 20 mL total volume of 50 mM HEPES pH 8.0 buffer containing 50 mM NaCl and 0.2 mM EDTA. The sample was allowed to sit at room temperature for 15 min and then was sonicated 3×4 mins on ice with a Branson Sonicator using duty cycle 1. This preparation provides vesicles with a mole fraction of 0.11 for the FRET substrate.
The enzymatic assay was measured using 384-well white Optiplates. Each well contained 20 μL of assay buffer (50 mM HEPES pH 8.0, 50 mM NaCl and 1 mM CaCl2) and 0.25 μL of a DMSO solution containing a compound of interest. EL or HL (10 μL) was added and allowed to incubate with the compound for 30 min at 37° C. The source of EL was conditioned media obtained from HT-1080 cells that were transformed using RAGE technology (Athersys) to overexpress endogenous EL, and HL was partially purified from conditioned media obtained from COS cells overexpressing HL. The reaction was started by the addition of 10 μL of a 1:10 dilution of vesicles. The final total reaction volume was […]. The reaction rates were measured on a Gemini plate reader with an excitation wavelength of 490 nm and an emission wavelength of 530 nm. Readings were taken over a period of 60 minutes, and the slope between 300 and 900 secs of the readout was used to calculate the rate of the reaction.
For the compound `CC(C)(C)OC(=O)N1CC(S(=O)(=O)C(c2nnc(CS(N)(=O)=O)o2)c2nc3ccc(-c4ccccc4)cc3s2)C1` (stereo not drawn) [Example 38, tert-butyl 3-(((6-phenylbenzo[d]thiazol-2-yl)(5-(sulfamoylmethyl)-1,3,4-oxadiazol-2-yl)methyl)sulfonyl)azetidine-1-carboxylate], the IC50 was less than 10 nM.

Consider `NS(=O)(=O)Cc1nnc(C(c2nc3ccc(-c4ccccc4)cc3s2)S(=O)(=O)Cc2ccccc2)o1` (stereo not drawn) [Example 37, (5-((benzylsulfonyl)(6-phenylbenzo[d]thiazol-2-yl)methyl)-1,3,4-oxadiazol-2-yl)methanesulfonamide], for which the IC50 is less than 10 nM.

For `NS(=O)(=O)NCc1nnc(C(c2nc3ccc(-c4ccc(F)nc4)cc3s2)S(=O)(=O)Cc2ccc(C(F)(F)F)nc2)o1` (stereo not drawn) [Example 76, N-({5-[6-(6-fluoro-3-pyridinyl)-1,3-benzothiazol-2-yl({[6-(trifluoromethyl)pyridin-3-yl]methyl}sulfonyl)methyl]-1,3,4-oxadiazol-2-yl}methyl) sulfuric diamide], the IC50 came out at 11 nM.

On to `NS(=O)(=O)NCc1nnc(C(c2nc3ccc(-c4ccccc4)cc3s2)S(=O)(=O)Cc2cc(C(F)(F)F)cc(C(F)(F)F)c2)o1` (stereo not drawn) [Example 72, N-((5-(((3,5-bis (trifluoromethyl)benzyl)sulfonyl) (6-phenyl-1,3-benzothiazol-2-yl)methyl)-1,3,4-oxadiazol-2-yl)methyl)sulfamide], for which the IC50 is less than 10 nM.

In the case of `CC1(Cc2nnc(Cc3nc4ccc(-c5ccccc5)cc4s3)o2)NC(=O)N(CC(F)(F)F)C1=O` (single isomer, unassigned; isomer b) [Example 26, 5-Methyl-5-((5-((6-phenylbenzo[d]thiazol-2-yl)methyl)-1,3,4-oxadiazol-2-yl)methyl)-3-(2,2,2-trifluoroethyl)imidazolidine-2,4-dione (Isomer B)], the IC50 is less than 10 nM.

Consider `CS(=O)(=O)C(c1nnc(CC2SC(=O)NC2=O)o1)c1nc2ccc(-c3ccc(C(=O)N4CCOCC4)cc3)cc2s1` (stereo not drawn) [Example 2, 5-((5-((methylsulfonyl)(6-(4-(4-morpholinylcarbonyl)phenyl)-1,3-benzothiazol-2-yl)methyl)-1,3,4-oxadiazol-2-yl)methyl)-1,3-thiazolidine-2,4-dione], for which the IC50 was less than 10 nM.

With `CC1(Cc2nnc(C(c3nc4ccc(-c5ccc(F)nc5)cc4s3)S(=O)(=O)Cc3ccccc3)o2)NC(=O)NC1=O` (single isomer, unassigned; isomer a) [Example 6, 5-((5-((benzylsulfonyl)(6-(6-fluoropyridin-3-yl)benzo[d]thiazol-2-yl)methyl)-1,3,4-oxadiazol-2-yl)methyl)-5-methylimidazolidine-2,4-dione (Isomer A)], the IC50 was determined as 11 nM.

In the case of `Cn1cc(-c2ccc3nc(C(c4nnc(CC5SC(=O)NC5=O)o4)S(C)(=O)=O)sc3c2)cn1` (stereo not drawn) [Example 24, 5-((5-((6-(1-methyl-1H-pyrazol-4-yl)benzo[d]thiazol-2-yl)(methylsulfonyl)methyl)-1,3,4-oxadiazol-2-yl)methyl) thiazolidine-2,4-dione], the IC50 is less than 10 nM.

Regarding `CC1(Cc2nnc(C(c3nc4ccc(-c5ccc(F)nc5)cc4s3)S(C)(=O)=O)o2)NC(=O)NC1=O` (single isomer, unassigned; isomer a) [Example 21, 5-((5-((6-(6-fluoropyridin-3-yl)benzo[d]thiazol-2-yl)(methylsulfonyl)methyl)-1,3,4-oxadiazol-2-yl)methyl)-5-methylimidazolidine-2,4-dione (Isomer A)], the IC50 was determined as 281 nM.

With `CS(=O)(=O)C(c1nnc(CC2SC(=O)NC2=O)o1)c1nc2ccc(-c3ccc(F)nc3)cc2s1` (stereo not drawn) [Example 3, 5-((5-((6-(6-fluoro-3-pyridinyl)-1,3-benzothiazol-2-yl)(methylsulfonyl)methyl)-1,3,4-oxadiazol-2-yl)methyl)-1,3-thiazolidine-2,4-dione], the IC50 is less than 10 nM.

Turning to `CC1(Cc2nnc(C(c3nc4ccc(-c5ccnc(F)c5)cc4s3)S(C)(=O)=O)o2)NC(=O)NC1=O` (single isomer, unassigned; isomer a) [Example 13, 5-((5-((6-(2-fluoropyridin-4-yl)benzo[d]thiazol-2-yl)(methylsulfonyl)methyl)-1,3,4-oxadiazol-2-yl)methyl)-5-methylimidazolidine-2,4-dione (Isomer A)], the IC50 is less than 10 nM.

Consider `Cc1ccccc1CS(=O)(=O)C(c1nnc(CNS(N)(=O)=O)o1)c1nc2ccc(-c3ccccc3)cc2s1` (stereo not drawn) [Example 70, N-((5-(((2-methylbenzyl)sulfonyl)(6-phenyl-1,3-benzothiazol-2-yl)methyl)-1,3,4-oxadiazol-2-yl)methyl) sulfamide], for which the IC50 was less than 10 nM.

Turning to `NS(=O)(=O)NCc1nnc(C(c2nc3ccc(-c4ccccc4)cc3s2)S(=O)(=O)Cc2ccc(Cl)cc2)o1` (stereo not drawn) [Example 58, N-((5-(((4-chlorobenzyl)sulfonyl)(6-phenyl-1,3-benzothiazol-2-yl)methyl)-1,3,4-oxadiazol-2-yl)methyl)sulfamide], the IC50 was less than 10 nM.

In the case of `CN1CCN(C(=O)c2ccc(-c3ccc4nc(C(c5nnc(CNS(N)(=O)=O)o5)S(C)(=O)=O)sc4c3)cc2)CC1` (stereo not drawn) [Example 80, N-((5-((6-(4-((4-methyl-1-piperazinyl)carbonyl)phenyl)-1,3-benzothiazol-2-yl)(methylsulfonyl)methyl)-1,3,4-oxadiazol-2-yl)methyl)sulfamide], the IC50 was 57 nM.

`CC1(Cc2nnc(C(c3nc4ccc(-c5ccc(C(=O)N6CCOCC6)cc5)cc4s3)S(C)(=O)=O)o2)NC(=O)NC1=O` (single isomer, unassigned; isomer b) [Example 15, 5-methyl-5-((5-((methylsulfonyl)(6-(4-(morpholine-4-carbonyl)phenyl)benzo[d]thiazol-2-yl)methyl)-1,3,4-oxadiazol-2-yl)methyl)imidazolidine-2,4-dione (Isomer B)]: the IC50 was 65 nM.

`O=C(OCc1ccccc1)N1CCC(S(=O)(=O)C(c2nnc(CS(=O)(=O)O)o2)c2nc3ccc(-c4ccccc4)cc3s2)CC1` (stereo not drawn) [Example 32, (5-(((1-((benzyloxy)carbonyl)-4-piperidinyl)sulfonyl)(6-phenyl-1,3-benzothiazol-2-yl)methyl)-1,3,4-oxadiazol-2-yl)methanesulfonic acid]: the IC50 is less than 10 nM.

Turning to `NS(=O)(=O)NCc1nnc(C(c2nc3ccc(-c4ccccc4)cc3s2)S(=O)(=O)Cc2cc(Cl)cc(Cl)c2)o1` (stereo not drawn) [Example 59, N-((5-(((3,5-dichlorobenzyl)sulfonyl)(6-phenyl-1,3-benzothiazol-2-yl)methyl)-1,3,4-oxadiazol-2-yl)methyl)sulfamide], the IC50 was less than 10 nM.

Regarding `CS(=O)(=O)NCc1nnc(C(c2nc3ccc(-c4ccccc4)cc3s2)S(C)(=O)=O)o1` (stereo not drawn) [Example 86, N-((5-((Methylsulfonyl)(6-phenylbenzo[d]thiazol-2-yl)methyl)-1,3,4-oxadiazol-2-yl)methyl)methanesulfonamide], the IC50 was 47 nM.

Turning to `O=S(=O)(CCC(F)(F)F)NS(=O)(=O)Cc1nnc(C(c2nc3ccc(-c4ccccc4)cc3s2)S(=O)(=O)CCC(F)(F)F)o1` (stereo not drawn) [Example 36, 3,3,3-trifluoro-N-(((5-((6-phenylbenzo[d]thiazol-2-yl)((3,3,3-trifluoropropyl)sulfonyl)methyl)-1,3,4-oxadiazol-2-yl)methyl)sulfonyl)propane-1-sulfonamide], the IC50 is less than 10 nM.

For `CCNC(=O)NCc1nnc(C(c2nc3ccc(-c4ccccc4)cc3s2)S(C)(=O)=O)o1` (stereo not drawn) [Example 87, 1-Ethyl-3((5-((methylsulfonyl)(6-phenylbenzo[d]thiazol-2-yl)methyl)-1,3,4-oxadiazol-2-yl)methyl)urea], the IC50 is 46 nM.

On to `NS(=O)(=O)NCc1nnc(C(c2nc3ccc(-c4ccccc4)cc3s2)S(=O)(=O)CC2CCCCC2)o1` (stereo not drawn) [Example 71, N-((5-(((cyclohexylmethyl)sulfonyl)(6-phenyl-1,3-benzothiazol-2-yl)methyl)-1,3,4-oxadiazol-2-yl)methyl)sulfamide], for which the IC50 is less than 10 nM.

These data come from patent US20140011799A1 (Bristol-Myers Squibb Company, priority 2012, published 2014).
